We go through 60 compounds from ChEMBL document CHEMBL4334438, “Discovery of novel glycogen synthase kinase-3α inhibitors: Structure-based virtual screening, preliminary SAR and biological evaluation for treatment of acute myeloid leukemia” (Eur J Med Chem, 2019).

Data set [1] deals with Glycogen synthase kinase-3 alpha (Homo sapiens), P49840 [UNDEFINED MUTATION]. Kind of data set: Inhibition of human GSK-3alpha S449A mutant (2 to end residues) at 10 uM using phospho GS2 peptide as substrate after 40 mins in presence of [gamma-33ATP] by scintillation counting method relative to control.
Chain of Glycogen synthase kinase-3 alpha (Homo sapiens), P49840 [UNDEFINED MUTATION] (P49840 whole entry, looked up, stated change not applied): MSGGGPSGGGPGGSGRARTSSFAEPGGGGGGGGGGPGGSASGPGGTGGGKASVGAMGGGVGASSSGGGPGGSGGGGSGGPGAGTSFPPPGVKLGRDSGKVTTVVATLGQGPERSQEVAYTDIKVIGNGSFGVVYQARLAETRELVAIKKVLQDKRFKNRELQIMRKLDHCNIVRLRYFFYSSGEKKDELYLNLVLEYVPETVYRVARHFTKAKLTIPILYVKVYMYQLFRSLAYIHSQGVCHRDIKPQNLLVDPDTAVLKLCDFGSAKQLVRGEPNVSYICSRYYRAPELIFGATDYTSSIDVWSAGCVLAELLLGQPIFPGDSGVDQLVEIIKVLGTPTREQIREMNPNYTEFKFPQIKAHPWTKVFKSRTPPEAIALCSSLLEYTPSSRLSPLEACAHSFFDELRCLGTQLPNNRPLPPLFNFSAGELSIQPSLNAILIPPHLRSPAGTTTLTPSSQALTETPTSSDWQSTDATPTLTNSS
Data set [2] deals with Glycogen synthase kinase-3 alpha (Homo sapiens, UniProt P49840). In words: Inhibition of human GSK-3alpha S449A mutant (2 to end residues) using phospho GS2 peptide as substrate after 40 mins in presence of [gamma-33ATP] by scintillation counting method.
Chain of Glycogen synthase kinase-3 alpha (P49840 whole entry, the tested form may be a part): as the sequence (P49840 whole entry, looked up, stated change not applied) above
The target in data set [3] is GSK-3beta (H350L mutant) (Homo sapiens, UniProt P49841, H350L). Kind of data set: Inhibition of human GSK-3beta H350L mutant (2 to end residues) at 10 uM using phospho GS2 peptide as substrate after 40 mins by [gamma-33ATP] radiometric assay relative to control. The settings on record: human GSK-3beta H350L mutant enzyme (residues 2 to end), probe phospho GS2 peptide.
Chain of GSK-3beta (H350L mutant) (P49841 whole entry, looked up, stated change not applied, the tested form may be a part): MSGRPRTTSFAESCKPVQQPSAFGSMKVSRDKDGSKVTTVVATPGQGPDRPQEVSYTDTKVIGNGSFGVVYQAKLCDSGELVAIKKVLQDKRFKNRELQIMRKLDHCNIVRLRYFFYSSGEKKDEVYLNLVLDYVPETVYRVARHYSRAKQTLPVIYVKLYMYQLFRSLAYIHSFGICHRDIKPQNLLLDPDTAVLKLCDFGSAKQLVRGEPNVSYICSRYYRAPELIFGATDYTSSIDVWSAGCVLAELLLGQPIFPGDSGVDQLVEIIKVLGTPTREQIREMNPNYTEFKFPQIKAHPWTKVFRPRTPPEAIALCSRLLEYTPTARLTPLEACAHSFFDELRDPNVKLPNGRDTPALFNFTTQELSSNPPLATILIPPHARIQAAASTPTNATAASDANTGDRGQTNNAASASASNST

For data set [4], the target named is Glycogen synthase kinase-3 beta (Homo sapiens, UniProt P49841, H350L). Kind of data set: Inhibition of human GSK-3beta H350L mutant (2 to end residues) at 10 uM using phospho GS2 peptide as substrate after 40 mins by [gamma-33ATP] radiometric assay.
Chain of Glycogen synthase kinase-3 beta (P49841 whole entry, looked up, stated change not applied): as the sequence (P49841 whole entry, looked up, stated change not applied, the tested form may be a part) above

In the case of `COc1ccc([N+](=O)[O-])cc1-c1ccc(/C=C2/S/C(=N\C(C)=O)NC2=O)o1`, the inhibition (in general, the relative decrease from the control value, in per cent) in data set [1] was determined as 9%.
Regarding `O=C1NC(=S)N/C1=C/c1ccc(-c2ccc(Cl)c(Cl)c2)o1`, the inhibition in data set [1] was 65%. Further, the IC50 (in general, the point on the concentration scale where inhibition reaches its midpoint) in data set [2] came out at 370 nM; in data set [4], 678 nM. The inhibition at 40 min, 10 µM in data set [3] came out at 59%.
As to `NC(=O)Cc1nc2sc3c(c2c(=O)[nH]1)CCN(Cc1ccccc1)C3`, in data set [1], the inhibition is -1%.
Still for that read-out and setting: next, `O=C1N/C(=N/c2ccccc2)S/C1=C/c1ccco1`: 21%.
With `N=C1NC(=O)/C(=C\c2ccc(-c3ccccc3Cl)o2)S1`, in data set [1], the inhibition worked out at 95%. Besides, the IC50 was found to be 242 nM in data set [2] and 565 nM in data set [4]. For the same compound, the inhibition at 40 min, 10 µM in data set [3] was 95%.
Turning to `N=C1NC(=O)/C(=C\c2ccc(-c3ccc([N+](=O)[O-])cc3Cl)o2)S1`, the inhibition in data set [1] was 20%.
As to `CCN1C(=O)/C(=C\c2ccc(-c3ccc(C(=O)O)cc3)o2)N(CC)C1=S`, the inhibition in data set [1] turned out to be 38%.
On the same count and under the same terms, next, `O=C(N/N=C/c1cccnc1)c1cc(-c2cccc3ccccc23)n[nH]1`: 12%; `CC(=O)/N=C1/NC(=O)/C(=C\c2ccc(-c3ccc(C)c(Cl)c3)o2)S1`: 21%.
Take `N=C1NC(=O)/C(=C\c2ccc(-c3ccc(Cl)cc3Cl)o2)S1`: the inhibition in data set [1] was determined as 82%. Also, the values for the IC50 in data set [2] and in data set [4] were 1880 nM and 1200 nM, respectively. Also, in data set [3], the inhibition at 40 min, 10 µM came to 93%.
For the compound `CC(=O)/N=C1/NC(=O)/C(=C\c2ccc(-c3ccc(C(=O)O)cc3)o2)S1`, the inhibition in data set [1] worked out at 86%. Further, the IC50 in data set [2] worked out at 557 nM; in data set [4] it was 3720 nM. The inhibition at 40 min, 10 µM in data set [3] turned out to be 72%.
In the case of `COc1ccc(-c2ccc(CNc3n[nH]c(C)n3)o2)cc1Cl`, the inhibition in data set [1] came out at 8%.
On the same count and under the same terms, to `O=C(O)c1cc(NS(=O)(=O)c2ccc3c4c(cccc24)C(=O)N3)ccc1O` belongs 15%.
Take `COc1ccc(CNc2cc(-c3ccco3)n[nH]2)cc1`: the inhibition in data set [1] came to 1%.
Turning to `CCOc1c(/C=C2/SC(=O)NC2=O)cccc1OC`, the inhibition in data set [1] stood at 54%. Besides, the IC50 in data set [2] came out at 16800 nM.
For the compound `CCN1C(=O)/C(=C\c2ccc(-c3ccc(Cl)cc3Cl)o2)NC1=S`, the inhibition in data set [1] turned out to be 26%.
The same measure, in the same setting: next, `COc1cc(/C=C2/C(=O)NC(=O)N(c3ccccc3)C2=O)ccc1O`: 14%.
As to `CC1=NN(c2cccc(C(=O)O)c2)C(=O)/C1=C\c1ccc(-c2ccc3c(c2)C(=O)NC3=O)o1`, the inhibition in data set [1] was found to be 58%. In addition, the IC50 in data set [2] came to 6150 nM.
In the case of `O=C1N/C(=N/c2ccccc2)S/C1=C/c1ccc(Sc2ccc(Cl)cc2)o1`, in data set [1], the inhibition is 47%.
`CCCCCSc1nc2c(c(=O)[nH]c(=O)n2C)n1CC(O)COc1ccccc1` (configuration not stated): in data set [1], the inhibition worked out at 25%.
With `O=C(N/N=C/c1cccc(Cl)c1)c1cc(-c2ccc3c4c(cccc24)CC3)[nH]n1`, the inhibition in data set [1] came to 52%. Also, the IC50 in data set [2] was found to be 11200 nM.
Regarding `O=C1NC(=S)NC(=O)C1=Cc1ccc(-c2cc(Cl)ccc2Cl)o1`, the inhibition in data set [1] was 26%.
The same measure, in the same setting: next, `O=C1NC(=S)N/C1=C/c1ccc(Sc2ccc(Cl)cc2)o1`: 23%; `O=C1N/C(=N/c2ccccc2)S/C1=C/c1ccc(-c2cccc(C(=O)O)c2)o1`: 15%; `COc1ccc([N+](=O)[O-])cc1-c1ccc(/C=C2/SC(=N)NC2=O)o1`: 15%.
Turning to `Cc1ccc(OCc2n[nH]c(Nc3ccccc3)n2)cc1`, the inhibition in data set [1] worked out at 5%.
For the compound `CC(=O)c1cn(CCCCCCCCCCn2cc(C(C)=O)c(=O)[nH]c2=O)c(=O)[nH]c1=O`, the inhibition in data set [1] was determined as 13%.
Same read-out and setting: to `O=C(CSc1nnc(CCc2nnc(SCC(=O)c3ccccc3)[nH]2)[nH]1)c1ccccc1` belongs 25%; to `COc1cc(CNc2nn[nH]n2)ccc1OCC(N)=O`, 1%.
On the same count and under the same terms, to `O=C1N/C(=N/Cc2ccccc2)S/C1=C/c1ccc(-c2ccccc2)o1` belongs 30%; to `O=C1N/C(=N/c2ccccc2)S/C1=C/c1ccc(-c2ccccc2)o1`, 23%.
For `N#Cc1cn(CCCN2CCN(CCCn3cc(C#N)c(=O)[nH]c3=O)CC2)c(=O)[nH]c1=O`, in data set [1], the inhibition was determined as 2%.
Same read-out and setting: next, `N=C1NC(=O)/C(=C\c2ccc(-c3ccc(Cl)c([N+](=O)[O-])c3)o2)S1`: 49%; `NS(=O)(=O)c1ccc(N/C=C2/C(=O)NC(=O)N(c3ccccc3)C2=O)cc1`: 17%; `CN1C(=O)/C(=C\c2ccc(-c3cccc(Cl)c3)o2)N(C)C1=S`: 13%.
Still for that read-out and setting: to `N#CC1=C(N)Oc2[nH]nc(-c3cccnc3)c2/C1=C1\C(=O)Nc2ccc(Br)cc21` belongs 2%; to `O=C1NC(=S)N/C1=C/c1ccc(-c2c(Br)cc([N+](=O)[O-])cc2Br)o1`, 42%.
Take `COc1cc(CNc2ccc(CNc3nc[nH]n3)cc2)ccc1OCC(=O)NC(C)(C)C`: the inhibition in data set [1] stood at 1%.
Turning to `CCCN1C(=O)/C(=C\c2ccc(-c3ccc(Cl)cc3)o2)NC1=S`, the inhibition in data set [1] was 17%.
On the same count and under the same terms, next, `Cc1[nH]nc2c1C(c1ccnc3ccccc13)C(C#N)=C(N)O2` (configuration not stated): 6%; `CC(=O)/N=C1/NC(=O)/C(=C\c2ccc(-c3ccc(F)cc3F)o2)S1`: 15%.
Turning to `Cc1ccccc1OCC(=O)Nc1ccc(Oc2ccc3c(c2)C(=O)NC3=O)cc1`, the inhibition in data set [1] was 54%. Also, in data set [2], the IC50 was 10200 nM.
Consider `COc1cc([N+](=O)[O-])ccc1-c1ccc(/C=C2/SC(=N)NC2=O)o1`, for which the inhibition in data set [1] came to 29%.
Same read-out and setting: next, `Cc1ccc(Cl)cc1-c1ccc(/C=C2/S/C(=N\c3ccccc3)NC2=O)o1`: 0%; `Cc1ccc(SCc2[nH]nc3c2C(c2ccnc4ccccc24)C(C#N)=C(N)O3)cc1` (configuration not stated): 2%.
Still for that read-out and setting: to `Cc1cc(C)cc(/N=C2/NC(=O)/C(=C\c3ccc(-c4cccc(Cl)c4)o3)S2)c1` belongs 10%; to `COC(=O)c1ccc(-c2ccc(/C=C3\C(=O)NC(=N)N3C)o2)cc1`, 32%.
Take `CC(=O)/N=C1/NC(=O)/C(=C\c2ccc(-c3ccccc3C(=O)O)o2)S1`: the inhibition in data set [1] stood at 11%.
For `O=C(CSc1nc2ccccc2[nH]c1=O)Nc1ccc2c(c1)OCO2`, the inhibition in data set [1] turned out to be 2%.
On to `COc1ccc(-c2n[nH]cc2/C=N\NC(=O)c2ccccc2I)cc1OC`, for which, in data set [1], the inhibition turned out to be 44%.
The same measure, in the same setting: next, `Cc1c(Cl)cccc1-c1ccc(CNc2nc[nH]n2)o1`: 8%; `N#Cc1ccccc1-c1ccc(C=C2C(=O)NC(=S)NC2=O)o1`: 14%.
As for `O=C1NC(=O)N(c2ccc(Br)cc2)C(=O)/C1=C\NCCc1c[nH]c2ccccc12`, the inhibition in data set [1] stood at 66%. In addition, the IC50 in data set [2] came to 4600 nM.
As for `O=C(O)CCC(=O)N1N=C(c2c(-c3ccccc3)c3cc(Cl)ccc3[nH]c2=O)CC1c1ccco1` (configuration not stated), in data set [2], the IC50 was found to be 13000 nM.
`NC(=O)CSc1nc2c(N)ncnc2n1Cc1ccccc1`: in data set [1], the inhibition was -10%.
Still for that read-out and setting: next, `O=C1NC(=S)N/C1=C/c1ccc(-c2cc([N+](=O)[O-])ccc2Cl)o1`: 22%.
Still for that read-out and setting: to `Cc1cc([N+](=O)[O-])ccc1-c1ccc(/C=C2/SC(=N)NC2=O)o1` belongs 44%; to `Nc1nc(CCCc2n[nH]c(N)n2)n[nH]1`, 16%.
With `O=C(O)CCC(=O)N1N=C(c2c(O)nc3ccc(Cl)cc3c2-c2ccccc2)CC1c1ccco1` (configuration not stated), the inhibition in data set [1] is 67%.
On the same count and under the same terms, to `O=C(COC(=O)c1cc(O)nc2ccccc12)c1cccc2ccccc12` belongs 2%.
